Laboratory results reported in patent publication US10981858B2, “Dendrimer and formulations thereof” (Priostar Pty Ltd, priority 2015, dated 2021).
“Also recorded” adds a separate entry of the source.

Key:
Format in all cases: physicochemical
[1] = 2,4-D/dendrimer hard water testing (clarity, sedimentation); settings: 30° C.; for Appearance at Addition / Appearance/Sedimentation After 24 Hrs.: 2,4-D Amine in 342 ppm hard water
Procedure: 342 ppm hard water was prepared as per CIPAC method MT18. The hard water was heated to 30° C. […]

[2] = 2,4-D/dendrimer formulation stability study (crystallisation at 0° C.); settings: for Crystallisation After 7 Days at 0° C. With Seeding: 2,4-D Amine 625 g/l seeded with 2,4-D Amine salt; for Crystallisation After 7 Days at 0° C.: without seeding
Procedure: 20 ml of 2,4-D Amine(2,4-D 625 g/l market sample, Rygel, Adama Australia) was transferred to 25 ml clear vials and dendrimer added (with or without 30% Dithethylene Glycol). Caps were tightened to ensure no moisture entered the vials. Formulations were placed in a freezer at 0° C. […] In a related experiment, formulations were prepared with seeding with 2,4-D Amine salt (Shanghai Biochemical Sci. Ltd., purity 98 in order to hasten rate of crystallisation. The results are provided in Table 2.

[3] = Solubilization of water insoluble surfactant Ethoxylated Lauryl alcohol-3 M in LA-9 solution; settings: for Quantity LA-3 added to LA-9 solution: 50 g, until hazy
Procedure: 5% w/w aqueous solution of Ethoxylated Lauryl alcohol-9 mole (water soluble surfactant) was prepared in Deionized water (2.5 g in 47.5 ml). Dendrimer compounds 1 and 4 were diluted 70:30 w/w in Diethylene glycol. The 5% Ethoxylated Lauryl alcohol-9 M (LA-9) solution was combined with dendrimer DEG solution at 90:10, 80:20 and 70:30 w/w (total weight 50 g).
Ethoxylated lauryl alcohol-3 mole (water insoluble surfactant) was added dropwise, while stirring, to the 50 g LA-9 solution (with or without dendrimer), until it became hazy. The weight of Ethoxylated lauryl alcohol-3 M added was recorded.

[4] = Solubilization of Methylated seed oil (MSO) in aqueous LA-9 solution; settings: for Quantity MSO added to 10% LA-9 solution: 50 g, until hazy
Procedure: 10% aqueous solution of Ethoxylated Lauryl alcohol-9 mole (water soluble surfactant) was prepared in Deionized water (5 g in 45 ml). Dendrimer compounds 1 and 4 were prepared 70:30 w/w in Diethylene glycol (DEG). The 10% Ethoxylated Lauryl alcohol-9 M (LA-9) solution was combined with dendrimer DEG solution at 80:20 and 60:40 w/w (total weight of 50 g).
Methylated seed oil (MSO) (STEPOSOL-ROE-W, canola oil methyl ester, Stepan) was added dropwise under stirring to the 10% LA-9 solution (with or without dendimers), until the solution became hazy. Weight of MSO added was recorded.

Cloud point studies = settings: 1 gm. dendrimer solution (70:30 w/w dendrimer:Diethylene Glycol) in 99 gm. of 10% NaOH solution
Procedure: 1 gm. of dendrimer solution (70:30 w/w dendrimer [Compound 1 or Compound 4]:Diethylene Glycol) was dissolved in 99 gm. of 10% NaOH solution in Deionized water and heated until hazy. Temperature of the solution was measured using calibrated thermometer.

[5] = Water value of dendrimers with solvent (Solvesso 200); settings: 50 g aqueous solution, 7% dendrimer and 3% DEG; until hazy
Procedure: 50 g Aqueous solution of Dendrimer were prepared containing 7% dendrimer and 3% Diethylene glycol (DEG) by weight. Solvesso 200 (C10-13 aromatic hydrocarbon solvent) was added dropwise under stirring until the solution became hazy. Weight of Solvesso added was recorded.

[6] = Dynamic viscosity of aqueous dendrimer solution (Brookfield); settings: aqueous solution 7% dendrimer and 3% DEG, ambient temperature, spindle no. 63 at 50 rpm
Procedure: 50 g aqueous solution of dendrimer (7% dendrimer and 3% DEG) was prepared in deionized water in a beaker, and subjected to dynamic viscosity measurement using Brookfield viscometer at ambient temperature. Viscosity studies were conducted using spindle no. 63 at 50 rpm. It was observed that viscosity of Compound-1 solution was 1.8 cps and Compound-4 solution was 0.6 cps.

[7] = Tebuconazole 600 SC hard water testing: suspensibility, column thinning, sedimentation; settings: 2 ml Tebuconazole 600 SC, dendrimer 0.7%, in 98 ml 342 ppm hard water, 30° C., 24 hours
Procedure: (§1) Formulations were prepared by mixing water, surfactant, dispersing agent, wetting agent and antifoam together then gradually adding active. High shear mix for 20-30 minutes to disperse formulation ingredients in water before adding the active and mixing until homogeneous. The mixture was milled on a Dyno bead mill (1 m/s) with 0.4-0.6 mm beads at max. 40° C. until particle size was <4 um. Dendrimer compound (in DEG) was added and stirred for 20 minutes. Thickener and antimicrobial was then added and stirred for 20 minutes. Formulations were deaerated by sonication.
98 ml of 342 ppm hard water (prepared as per CIPAC method MT18) was heated to 30° C. before adding 2 ml. of Tebuconazole 600 SC formulation. Temperature was maintained at 30° C. for 24 hours and formulation characteristics were studied for suspension stability, wetting, column thinning/separation and sedimentation.

[8] = Tebuconazole 600 SC wetting study in hard water; settings: one drop Tebuconazole 600 SC, dendrimer 0.7%, in 342 ppm hard water at 30° C.
Procedure: as §1
Wetting studies were conducted by placing one drop of Tebuconazole 600 SC formulation in 342 ppm hard water at 30° C. and recording the time when all the formulation particles were wet and dispersed in water.

[9] = Tebuconazole 600 SC formulation viscosity (Table 8); settings: dendrimer 0.7%
Procedure: as §1

[10] = Additional tebuconazole formulations: suspension stability and viscosity; settings: additional tebuconazole formulation, 0.8% additive
Excerpt: Additional formulations were developed, and formulation characteristics were studied for suspension stability, and viscosity.

[11] = 2,4-D Amine 625 g/l, dendrimer 2%
[12] = 2,4-D Amine 625 g/l, dendrimer 5%
[13] = 2,4-D Amine 625 g/l, dendrimer 10%

Structure (SMILES): OCCN(CCO)CC(O)COCC(COCC(O)CN(CCO)CCO)(COCC(O)CN(CCO)CCO)COCC(COCC(O)CN(CCO)CCO)(COCC(O)CN(CCO)CCO)COCC(O)CN(CCO)CCO (centres unmarked) [Compound 4, 9,9′-(Oxybis(methylene))bis(9-((3-(bis(2-hydroxyethyl)amino)-2-hydroxypropoxy)methyl)-3,15-bis(2-hydroxyethyl)-7,11-dioxa-3,15-diazaheptadecane-1,5,13,17-tetraol)]
- Appearance at Addition ([1]; dendrimer 1.4% (w/w), 0.6% DEG): Clear
- Appearance/Sedimentation After 24 Hrs. ([1]; dendrimer 1.4% (w/w), 0.6% DEG): Clear
- Appearance at Addition ([1]; dendrimer 2% (w/w)): Clear
- Appearance/Sedimentation After 24 Hrs. ([1]; dendrimer 2% (w/w)): Clear
- Appearance at Addition ([1]; dendrimer 3.5% (w/w), 1.5% DEG): Clear
- Appearance/Sedimentation After 24 Hrs. ([1]; dendrimer 3.5% (w/w), 1.5% DEG): Clear
- Appearance at Addition ([1]; dendrimer 5% (w/w)): Clear
- Appearance/Sedimentation After 24 Hrs. ([1]; dendrimer 5% (w/w)): Clear
- Appearance at Addition ([1]; dendrimer 7% (w/w), 3% DEG): Clear
- Appearance/Sedimentation After 24 Hrs. ([1]; dendrimer 7% (w/w), 3% DEG): Clear
- Appearance at Addition ([1]; dendrimer 10% (w/w)): Clear
- Appearance/Sedimentation After 24 Hrs. ([1]; dendrimer 10% (w/w)): Clear
- Appearance of 2,4-D solutions in hard water ([1]; all concentrations tested (from 1.4 to 10%), 342 ppm hard water, 24 hours): clear
- Crystallisation After 7 Days at 0° C. With Seeding ([2]; dendrimer 1.4%, Diethylene Glycol 0.6%): Crystallised
- Crystallisation After 7 Days at 0° C. With Seeding ([2]; dendrimer 2%): Crystallised
- Crystallisation After 7 Days at 0° C. With Seeding ([2]; dendrimer 3.5%, Diethylene Glycol 1.5%): Crystallised
- Crystallisation After 7 Days at 0° C. With Seeding ([2]; dendrimer 5%): Crystallised
- Crystallisation After 7 Days at 0° C. With Seeding ([2]; dendrimer 7%, Diethylene Glycol 3%): remained stable; also recorded: No, Clear
- Crystallisation After 7 Days at 0° C. With Seeding ([2]; dendrimer 10%): remained stable; also recorded: No, Clear
- Crystallisation at 0° C. without seeding ([2]; 2,4-D Amine 625 g/l, all levels of dendrimer tested): did not result in crystallisation
- Crystallisation After 14 Days at 0° C. ([2]; 2,4-D Amine 625 g/l, dendrimer 1.4%, Diethylene Glycol 0.6%): Crystallised
- Crystallisation After 14 Days at 0° C. [2, 11]: Crystallised
- Crystallisation After 14 Days at 0° C. ([2]; 2,4-D Amine 625 g/l, dendrimer 3.5%, Diethylene Glycol 1.5%): No
- Crystallisation After 14 Days at 0° C. [2, 12]: Crystallised
- Crystallisation After 14 Days at 0° C. ([2]; 2,4-D Amine 625 g/l, dendrimer 7%, Diethylene Glycol 3%): No
- Crystallisation After 14 Days at 0° C. [2, 13]: No
- Crystallisation After 7 Days at 0° C. [2, 11]: No
- Crystallisation After 7 Days at 0° C. [2, 12]: No
- Crystallisation After 7 Days at 0° C. [2, 13]: No
- Quantity LA-3 added to LA-9 solution ([3]; ratio 5% LA-9 solution:dendrimer/DEG solution 70:30 (w/w), 21% dendrimer (w/w)): 2.01 g
- Quantity LA-3 added to LA-9 solution ([3]; ratio 5% LA-9 solution:dendrimer/DEG solution 80:20 (w/w), 14% dendrimer (w/w)): 2.86 g
- Quantity LA-3 added to LA-9 solution ([3]; ratio 5% LA-9 solution:dendrimer/DEG solution 90:10 (w/w), 7% dendrimer (w/w)): 2.11 g
- Increase in solubilisation of Ethoxylated lauryl alcohol-3 M ([3]; over LA-9 without dendrimer): 72%
- Increase in solubilisation of Methylated seed oil in aqueous solution [4]: 110%
- Quantity MSO added to 10% LA-9 solution ([4]; ratio LA-9 solution:dendrimer/DEG solution 60:40 (w/w), 28% dendrimer (w/w)): 0.81 g
- Quantity MSO added to 10% LA-9 solution ([4]; ratio LA-9 solution:dendrimer/DEG solution 80:20 (w/w), 14% dendrimer (w/w)): 0.92 g
- Cloud point (temperature at which solution turned hazy) (Cloud point studies): greater than 80 °C
- Quantity Solvesso 200 added [5]: 2.15 g
- Dynamic viscosity [6]: 0.6 cps
- Suspensibility: Sediment [7]: <0.5 mL⁻¹
- Suspensibility: nature of sediment [7]: Compact
- Suspensibility: Column Thinning ([7]; top thinning): No
- Wetting [8]: 9.9 s
- Viscosity 0 C. ([9]; 0 C.): 744
- Viscosity 54 C. ([9]; 54 C.): 730
- Viscosity RT ([9]; RT): 730 cP
- Observation: sediment at 0 C. ([10]; 0 C.): No sediment at 0 C.,
- Viscosity (cP) 0 C. ([10]; 0 C.): 514 cP
- Observation: sediment at RT ([10]; RT): fluffy, low sediment
- Viscosity (cP) RT ([10]; RT): 672 cP
